The target in one test is T1, EHMT1 (Homo sapiens, UniProt Q9H9B1).
T1 sequence (Q9H9B1 1-1298): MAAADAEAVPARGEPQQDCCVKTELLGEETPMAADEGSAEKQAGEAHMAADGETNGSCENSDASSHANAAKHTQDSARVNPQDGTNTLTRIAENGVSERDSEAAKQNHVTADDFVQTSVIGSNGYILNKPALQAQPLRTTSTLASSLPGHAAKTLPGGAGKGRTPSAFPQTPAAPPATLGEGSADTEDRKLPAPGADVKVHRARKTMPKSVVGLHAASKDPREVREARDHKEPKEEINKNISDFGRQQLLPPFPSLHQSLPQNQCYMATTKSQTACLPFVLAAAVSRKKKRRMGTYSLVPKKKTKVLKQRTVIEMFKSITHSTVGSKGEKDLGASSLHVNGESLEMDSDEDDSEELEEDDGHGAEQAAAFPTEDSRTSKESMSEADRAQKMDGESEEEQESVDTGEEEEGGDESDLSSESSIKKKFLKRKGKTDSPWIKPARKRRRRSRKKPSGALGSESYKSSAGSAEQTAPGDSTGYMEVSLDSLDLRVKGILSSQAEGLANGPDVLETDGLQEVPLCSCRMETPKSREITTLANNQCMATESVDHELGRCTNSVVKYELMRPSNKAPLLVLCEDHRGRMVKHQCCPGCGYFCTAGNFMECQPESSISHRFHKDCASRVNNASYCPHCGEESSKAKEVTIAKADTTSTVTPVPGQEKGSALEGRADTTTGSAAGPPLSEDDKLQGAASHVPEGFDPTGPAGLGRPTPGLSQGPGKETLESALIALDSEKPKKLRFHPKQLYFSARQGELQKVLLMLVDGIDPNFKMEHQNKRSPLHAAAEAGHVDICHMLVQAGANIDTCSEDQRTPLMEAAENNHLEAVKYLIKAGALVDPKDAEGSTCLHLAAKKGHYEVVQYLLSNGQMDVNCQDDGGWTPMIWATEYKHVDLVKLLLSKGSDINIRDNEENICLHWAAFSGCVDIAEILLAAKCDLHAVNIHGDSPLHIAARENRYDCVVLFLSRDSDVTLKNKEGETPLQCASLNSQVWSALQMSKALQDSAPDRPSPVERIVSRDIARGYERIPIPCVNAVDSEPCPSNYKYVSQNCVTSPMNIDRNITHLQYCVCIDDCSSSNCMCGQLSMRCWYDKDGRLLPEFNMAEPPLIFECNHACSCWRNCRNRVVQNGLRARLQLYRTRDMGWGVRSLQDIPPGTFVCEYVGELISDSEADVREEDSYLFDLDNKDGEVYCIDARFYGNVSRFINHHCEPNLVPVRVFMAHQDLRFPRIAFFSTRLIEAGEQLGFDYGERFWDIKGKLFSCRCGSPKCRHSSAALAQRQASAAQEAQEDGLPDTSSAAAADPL
Briefly: EHMT1 PEP (EHMT1 peptide enzyme assay). The format is biochemical. To be noted: peptide substrate enzyme assay.

In test [1] the test system is H3K9me2 in MDA-MB-231 cells. Briefly: MDA-MB-231 H3K9me2 in-cell western assay. The class given is cell-based. The conditions noted are these: Homo sapiens, read-out: EHMT2 ICW (IC50 μM). Summed up: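 MDA-MB-231 cells (3,000/well) exposed to compound for two consecutive 48 h periods at 37 °C, then fixed and stained for H3K9me2, with DRAQ5 as DNA stain and infrared read at 700/800 nm. Percent inhibition was set between DMSO and UNC0638 control wells. IC50 came from triplicate dose–response fits with a four-parameter model, top 100%, bottom 0%.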

As for `CNC1=Nc2cc(-n3cc(C4CCCN4)cn3)c(OC)cc2C12CCC2` (stereo not shown) [Compound 322], the values for the IC50 (against EHMT1; in test [1]) were below 0.1 µM and 0.1 to 1 µM, respectively.

With `CNCc1cn(-c2cc(Nc3nc(C)cc(NC)n3)ccc2OC)nc1F` [Compound 323], the IC50 – broadly, the concentration that inhibits the measured activity by half – at EHMT1 was below 0.1 µM; in test [1] it was 0.1 to 1 µM.

As to `CNCc1cc(-c2cc(Nc3nc(C)cc(NC)n3)ccc2OC)on1` [Compound 324], the IC50 was 0.1 to 1 µM on EHMT1 and 1 to 10 µM in test [1].

On to `CNCc1cnn(-c2cc(Nc3nc(C)cc(NC)n3)ccc2C(F)(F)F)c1` [Compound 325], for which the IC50 on EHMT1 was below 0.1 µM; in test [1] it was 0.1 to 1 µM.

Consider `CNC1=Nc2cc(-n3cc(C4CCCN4)cn3)c(Cl)cc2C12CCC2` (stereo not shown) [Compound 326], for which the 50% inhibitory concentration (IC50) (on EHMT1; in test [1]) was below 0.1 µM throughout.

For `CNCc1cnn(-c2c(Cl)ccc(Nc3nc(C)cc(NC)n3)c2Cl)c1` [Compound 327], the 50% inhibitory concentration (IC50) (on EHMT1; in test [1]) was below 0.1 µM each time.

`CNCc1cnn(-c2c(Cl)ccc(Nc3nc(C)cc(NC)n3)c2F)c1` [Compound 328]: the IC50 (against EHMT1; in test [1]) was below 0.1 µM throughout.

Consider `CNCc1cnn(-c2c(F)ccc(Nc3nc(C)cc(NC)n3)c2Cl)c1` [Compound 329], for which the concentration for half-maximal inhibition (IC50) (against EHMT1; in test [1]) was below 0.1 µM each time.

In the case of `CNc1cc(C)nc(Nc2ccc(Cl)c(-n3cc(C4CCCN4)cn3)c2)n1` (stereo not shown) [Compound 330], the half-inhibitory concentration (IC50) (against EHMT1; in test [1]) was below 0.1 µM in each case.

As for `CNCc1cc(-c2cc(Nc3nc(C)cc(NC)n3)ccc2OC)no1` [Compound 331], the IC50 against EHMT1 was below 0.1 µM; in test [1], 0.1 to 1 µM.

Consider `CNc1cc(C)nc(Nc2ccc(OC)c(-c3cc4[nH]cc(C)c4cn3)c2)n1` [Compound 386], for which the concentration for half-maximal inhibition (IC50) (against EHMT1; in test [1]) was below 0.1 µM throughout.

Source of the values: US20220235065A1 (Epizyme, Inc., priority 2016, published 2022).
